Drawing on ChEMBL document CHEMBL3779885, “Inhibition of human DNA topoisomerase IIα by two novel ellipticine derivatives” (Bioorg Med Chem Lett, 2016), this text covers inhibition, IC50 and Activity for three compounds.

Calls of active or inactive are those of the source. The rule behind the calls is not given here.

The target of assay [1] is T1, DNA topoisomerase 2-alpha (Homo sapiens, UniProt P11388). Description: Inhibition of recombinant human DNA topoisomerase 2alpha binding to supercoiled pBR322 DNA expressed in topoisomerase1 deficient Saccharomyces cerevisiae JEL1 at 25 uM after 6 mins by electrophoretic mobility shift assay.
Assay [2] addresses T1, DNA topoisomerase 2-alpha. The experiment in a line: Inhibition of recombinant human DNA topoisomerase 2alpha expressed in topoisomerase1 deficient Saccharomyces cerevisiae JEL1 assessed as inhibition of DNA scission activity at 25 uM after 30 mins by agarose gel electrophoresis.
Assay [3] deals with T1, DNA topoisomerase 2-alpha. The experiment in a line: Inhibition of recombinant human DNA topoisomerase 2alpha expressed in topoisomerase1 deficient Saccharomyces cerevisiae JEL1 assessed as inhibition of DNA scission activity after 30 mins by agarose gel electrophoresis.
Assay [4] has as its target T1, DNA topoisomerase 2-alpha. The experiment in a line: Inhibition of recombinant human DNA topoisomerase 2alpha expressed in topoisomerase1 deficient Saccharomyces cerevisiae JEL1 using kinetoplast DNA as substrate assessed as decantenated kDNA minicircles at 200 to 1000 uM after 15 mins by agarose gel electrophoresis.
Assay [5] addresses T1, DNA topoisomerase 2-alpha. The experiment in a line: Activity at recombinant human DNA topoisomerase 2alpha expressed in topoisomerase1 deficient Saccharomyces cerevisiae JEL1 assessed as topoisomerase 2alpha-mediated supercoiled pBR322 DNA cleavage up to 200 uM after 15 mins by agarose gel electrophoresis.
The next assay concerns Escherichia coli. Description: Induction of DNA intercalation in relaxed pBR322 DNA assessed as conversion of relaxed DNA to negatively supercoiled DNA by measuring topoisomerase 1-mediated DNA relaxation measured up to 25 uM after 15 mins by agarose gel electrophoresis.
Assay [6] has as its target T1, DNA topoisomerase 2-alpha. Description: Induction of recombinant human DNA topoisomerase 2alpha binding to supercoiled pBR322 DNA expressed in topoisomerase1 deficient Saccharomyces cerevisiae JEL1 at 25 uM after 6 mins by electrophoretic mobility shift assay.
The next assay deals with Calf thymus DNA. Description: Inhibition of calf thymus DNA topoisomerase 2 assessed as DNA cleavage after 30 mins by agarose gel electrophoresis. Format: nucleic-acid assay, Bos taurus.

T1 sequence (P11388 whole entry): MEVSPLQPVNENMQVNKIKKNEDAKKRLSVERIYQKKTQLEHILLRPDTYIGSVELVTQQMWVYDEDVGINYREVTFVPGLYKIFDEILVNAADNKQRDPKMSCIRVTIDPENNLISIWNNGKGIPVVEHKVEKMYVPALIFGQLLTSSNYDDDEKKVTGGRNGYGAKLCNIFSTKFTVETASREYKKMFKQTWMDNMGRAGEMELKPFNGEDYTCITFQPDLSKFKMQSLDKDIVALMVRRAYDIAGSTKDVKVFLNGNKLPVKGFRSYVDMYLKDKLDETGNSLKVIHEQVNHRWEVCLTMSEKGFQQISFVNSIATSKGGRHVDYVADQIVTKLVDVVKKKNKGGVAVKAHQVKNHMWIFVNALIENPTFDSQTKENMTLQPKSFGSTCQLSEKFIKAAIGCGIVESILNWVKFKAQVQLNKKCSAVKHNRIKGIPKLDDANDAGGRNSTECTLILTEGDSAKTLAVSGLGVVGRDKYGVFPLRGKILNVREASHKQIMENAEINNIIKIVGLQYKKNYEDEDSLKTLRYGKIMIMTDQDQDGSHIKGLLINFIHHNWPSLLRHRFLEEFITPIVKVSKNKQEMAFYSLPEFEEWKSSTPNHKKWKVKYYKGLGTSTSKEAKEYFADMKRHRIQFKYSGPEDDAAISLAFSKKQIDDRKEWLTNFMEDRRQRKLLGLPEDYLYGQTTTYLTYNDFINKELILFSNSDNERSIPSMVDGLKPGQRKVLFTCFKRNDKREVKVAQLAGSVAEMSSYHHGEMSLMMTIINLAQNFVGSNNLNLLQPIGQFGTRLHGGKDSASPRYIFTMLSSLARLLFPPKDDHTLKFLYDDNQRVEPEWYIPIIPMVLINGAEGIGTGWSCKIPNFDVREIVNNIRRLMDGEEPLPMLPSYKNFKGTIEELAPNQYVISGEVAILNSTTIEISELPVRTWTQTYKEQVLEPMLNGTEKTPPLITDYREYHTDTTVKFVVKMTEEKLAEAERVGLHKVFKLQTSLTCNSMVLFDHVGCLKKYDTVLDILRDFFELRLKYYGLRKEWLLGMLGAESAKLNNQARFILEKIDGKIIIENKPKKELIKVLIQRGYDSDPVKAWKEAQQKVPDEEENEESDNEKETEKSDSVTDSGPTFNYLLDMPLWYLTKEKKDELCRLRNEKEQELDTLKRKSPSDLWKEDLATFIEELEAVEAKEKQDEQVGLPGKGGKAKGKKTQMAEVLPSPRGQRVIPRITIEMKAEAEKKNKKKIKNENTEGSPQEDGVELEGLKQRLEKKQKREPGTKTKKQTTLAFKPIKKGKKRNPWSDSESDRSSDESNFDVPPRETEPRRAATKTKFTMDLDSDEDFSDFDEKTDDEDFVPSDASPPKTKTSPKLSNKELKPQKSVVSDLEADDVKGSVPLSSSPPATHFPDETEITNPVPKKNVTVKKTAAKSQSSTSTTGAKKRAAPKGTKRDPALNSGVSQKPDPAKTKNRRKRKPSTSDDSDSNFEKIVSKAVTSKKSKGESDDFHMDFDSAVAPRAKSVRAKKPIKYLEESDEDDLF

On to `Cc1c2cnccc2cc2c1c1ccccc1n2C`, for which the inhibition entry in assay [1] was “inactive”. The inhibition in assay [2] was determined as 40%. The IC50 in assay [3] was 40 µM. The inhibition result in assay [4] was “Active”. In assay [5], the result was inactive. Further, in the assay on Escherichia coli, the outcome was Active.
For `Cc1c2c[n+](C)ccc2cc2c1c1ccccc1n2C`, the inhibition result in assay [1] was “inactive”. Besides, in assay [2], the inhibition came to 80%. Moreover, in assay [3], the half-inhibitory concentration (IC50) was determined as 5 µM. For the same compound, the inhibition entry in assay [4] was “Active”. Besides, in assay [5], the outcome was inactive. For the same compound, the result in the assay with Escherichia coli was Active. Also, in assay [6], the Activity was 50%.
With `Cc1c2ccncc2c(C)c2c1[nH]c1ccccc12` [ELLIPTECINE], in the assay on Calf thymus DNA, the IC50 was more than 200 µM.
